Like-named read-outs stand apart in the source and are kept apart here.
Tests used:
[1] = molecular target: human TLR9 (Homo sapiens (Human), UniProt Q9NR96); experiment: TLR9 inhibition reporter assay (HEK-Blue cells, SEAP reporter, ODN2006 stimulation);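 also: SEAP driven by IFN-β minimal promoter with five NF-κB and AP-1 sites, compounds 0.05 nM–50 µM in DMSO, 22 h, inhibition scaled between agonist plus DMSO and reference inhibitor wells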
Method: (§1) HEK-Blue™-cells (Invivogen) overexpressing human TLR7, TLR8 or TLR9 receptors were used for screening inhibitors of these receptors using an inducible SEAP (secreted embryonic alkaline phosphatase) reporter gene under the control of the IFN-β minimal promoter fused to five NF-κB and AP-1-binding sites. Briefly, cells are seeded into Greiner 384 well plates (15000 cells per well for TLR7, 20,000 for TLR8 and 25,000 for TLR9) and then treated with test compounds in DMSO to yield a final dose response concentration range of 0.05 nM-50 μM. After a 30 minute compound pre-treatment at room temperature, the cells are then stimulated with a TLR7 ligand (gardiquimod at a final concentration of 7.5 μM), TLR8 ligand (R848 at a final concentration of 15.9 μM) or TLR9 ligand (ODN2006 at a final concentration of 5 nM) to activate NF-κB and AP-1 which induce the production of SEAP. After a 22 hour incubation at 37° C., 5% CO2, SEAP levels are determined with the addition of HEK-Blue™ Detection reagent (Invivogen), a cell culture medium that allows for detection of SEAP, according to manufacturer's specifications.

[2] = molecular target: human TLR7 (Homo sapiens (Human), UniProt Q9NYK1); experiment: TLR7 inhibition reporter assay (HEK-Blue cells, SEAP reporter, gardiquimod stimulation); type: cell-based; details: gardiquimod 7.5 μM
Method: as §1

[3] = molecular target: human TLR8 (Homo sapiens (Human), UniProt Q9NR97); experiment: TLR8 inhibition reporter assay (HEK-Blue cells, SEAP reporter, R848 stimulation); details: read-out: TLR8 IC50, R848 15.9 μM;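 also: SEAP under an IFN-β minimal promoter carrying five NF-κB and AP-1 sites, 22 h at 37 °C, doses 0.05 nM–50 µM, inhibition scaled between agonist-plus-DMSO and reference-inhibitor wells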
Method: as §1

[4] = read-out: TLR9 IC50, HEK-Blue cells overexpressing human TLR9, SEAP reporter, ODN2006 5 nM
[5] = HEK-Blue cells overexpressing human TLR7, SEAP reporter
[6] = HEK-Blue cells overexpressing human TLR8, SEAP reporter
[7] = read-out: TLR9 IC50, HEK-Blue cells, ODN2006 5 nM

Sequence of human TLR8 (Q9NR97 27-1041): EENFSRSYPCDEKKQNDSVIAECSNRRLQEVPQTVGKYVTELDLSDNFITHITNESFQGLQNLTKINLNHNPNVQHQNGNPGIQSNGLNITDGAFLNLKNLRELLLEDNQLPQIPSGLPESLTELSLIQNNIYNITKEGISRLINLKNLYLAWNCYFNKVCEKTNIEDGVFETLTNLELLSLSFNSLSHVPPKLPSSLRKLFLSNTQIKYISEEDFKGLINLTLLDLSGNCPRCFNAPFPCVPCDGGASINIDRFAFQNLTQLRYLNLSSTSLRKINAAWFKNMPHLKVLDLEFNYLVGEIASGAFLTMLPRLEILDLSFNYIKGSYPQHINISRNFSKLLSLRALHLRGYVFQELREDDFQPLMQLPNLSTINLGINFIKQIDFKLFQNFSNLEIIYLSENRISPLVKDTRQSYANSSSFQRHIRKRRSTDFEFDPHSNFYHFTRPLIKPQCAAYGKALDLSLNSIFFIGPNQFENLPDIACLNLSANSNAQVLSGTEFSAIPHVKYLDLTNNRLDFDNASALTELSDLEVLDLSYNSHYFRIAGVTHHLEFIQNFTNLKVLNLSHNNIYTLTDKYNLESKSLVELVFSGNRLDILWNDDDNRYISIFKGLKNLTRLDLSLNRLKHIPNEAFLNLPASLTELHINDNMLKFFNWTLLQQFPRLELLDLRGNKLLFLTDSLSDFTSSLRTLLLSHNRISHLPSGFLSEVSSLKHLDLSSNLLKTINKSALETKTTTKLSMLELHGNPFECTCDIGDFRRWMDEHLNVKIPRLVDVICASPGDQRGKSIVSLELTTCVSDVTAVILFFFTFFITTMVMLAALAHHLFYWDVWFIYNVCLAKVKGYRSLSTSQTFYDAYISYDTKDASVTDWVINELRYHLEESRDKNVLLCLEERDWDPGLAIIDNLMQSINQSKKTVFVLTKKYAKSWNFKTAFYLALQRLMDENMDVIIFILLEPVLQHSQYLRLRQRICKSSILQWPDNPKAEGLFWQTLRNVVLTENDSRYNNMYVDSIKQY
Sequence of human TLR9 (Q9NR96 26-1032): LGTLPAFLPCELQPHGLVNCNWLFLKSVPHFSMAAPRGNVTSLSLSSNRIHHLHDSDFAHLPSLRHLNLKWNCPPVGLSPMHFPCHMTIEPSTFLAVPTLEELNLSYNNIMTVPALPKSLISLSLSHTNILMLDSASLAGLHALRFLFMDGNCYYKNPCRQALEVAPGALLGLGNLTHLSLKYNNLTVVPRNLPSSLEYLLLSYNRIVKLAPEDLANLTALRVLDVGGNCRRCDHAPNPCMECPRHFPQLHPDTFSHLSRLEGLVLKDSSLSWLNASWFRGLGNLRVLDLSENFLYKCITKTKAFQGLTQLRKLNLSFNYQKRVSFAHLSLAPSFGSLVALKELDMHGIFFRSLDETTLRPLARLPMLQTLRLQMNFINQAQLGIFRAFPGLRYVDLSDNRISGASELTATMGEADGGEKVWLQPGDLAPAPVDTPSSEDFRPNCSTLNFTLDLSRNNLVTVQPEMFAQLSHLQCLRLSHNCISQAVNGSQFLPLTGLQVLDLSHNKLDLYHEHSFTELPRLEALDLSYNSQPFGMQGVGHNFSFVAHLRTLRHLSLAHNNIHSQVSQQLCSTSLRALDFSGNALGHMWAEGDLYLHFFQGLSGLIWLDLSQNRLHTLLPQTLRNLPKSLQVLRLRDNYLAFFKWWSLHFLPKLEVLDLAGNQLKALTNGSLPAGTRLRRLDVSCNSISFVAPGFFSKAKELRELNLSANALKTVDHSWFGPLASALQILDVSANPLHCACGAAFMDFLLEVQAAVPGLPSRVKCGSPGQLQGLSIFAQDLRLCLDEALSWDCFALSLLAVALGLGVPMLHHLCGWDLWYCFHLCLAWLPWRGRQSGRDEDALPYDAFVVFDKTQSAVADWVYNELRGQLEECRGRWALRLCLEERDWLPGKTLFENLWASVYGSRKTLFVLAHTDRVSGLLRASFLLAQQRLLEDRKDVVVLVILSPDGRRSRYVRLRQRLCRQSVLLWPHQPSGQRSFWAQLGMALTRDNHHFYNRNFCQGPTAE
Sequence of human TLR7 (Q9NYK1 27-1049): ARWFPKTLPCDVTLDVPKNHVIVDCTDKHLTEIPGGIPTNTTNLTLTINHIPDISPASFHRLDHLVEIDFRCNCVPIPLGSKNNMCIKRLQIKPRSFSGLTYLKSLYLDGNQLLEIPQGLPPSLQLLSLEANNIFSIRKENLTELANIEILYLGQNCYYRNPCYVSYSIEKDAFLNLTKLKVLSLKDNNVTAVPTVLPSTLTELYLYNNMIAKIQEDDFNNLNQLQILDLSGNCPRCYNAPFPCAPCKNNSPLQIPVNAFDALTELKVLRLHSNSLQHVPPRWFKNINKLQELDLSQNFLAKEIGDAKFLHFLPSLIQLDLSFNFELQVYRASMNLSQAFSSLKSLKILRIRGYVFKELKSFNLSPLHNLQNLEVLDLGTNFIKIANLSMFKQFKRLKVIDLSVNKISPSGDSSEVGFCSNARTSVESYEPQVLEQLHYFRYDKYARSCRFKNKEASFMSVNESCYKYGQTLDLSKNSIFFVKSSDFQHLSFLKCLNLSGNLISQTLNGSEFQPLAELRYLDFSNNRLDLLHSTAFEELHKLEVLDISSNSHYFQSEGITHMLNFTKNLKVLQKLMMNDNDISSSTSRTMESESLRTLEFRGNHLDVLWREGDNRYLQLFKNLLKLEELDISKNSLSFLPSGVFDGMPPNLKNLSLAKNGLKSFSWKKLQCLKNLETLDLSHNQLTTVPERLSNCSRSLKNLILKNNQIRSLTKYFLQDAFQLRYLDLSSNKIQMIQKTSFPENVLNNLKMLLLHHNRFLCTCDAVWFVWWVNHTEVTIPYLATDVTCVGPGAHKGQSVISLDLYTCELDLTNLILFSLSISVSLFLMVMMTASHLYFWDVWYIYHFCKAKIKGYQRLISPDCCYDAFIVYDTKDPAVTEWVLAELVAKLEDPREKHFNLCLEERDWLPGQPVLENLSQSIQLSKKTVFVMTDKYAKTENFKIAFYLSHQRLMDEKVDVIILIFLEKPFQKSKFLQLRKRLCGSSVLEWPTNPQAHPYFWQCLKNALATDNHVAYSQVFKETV

Row | SMILES | IC50 [1, 4] [nM] | IC50 [2, 5] [nM] | IC50 [3, 6] [nM] | IC50 [1] [nM] | IC50 [1, 7] [nM] | IC50 ([2]; HEK-Blue cells) [nM] | IC50 ([3]; HEK-Blue cells) [nM]
1 | CC(C)c1c(-c2cn(CCS(C)(=O)=O)c3ncccc23)[nH]c2ccc(C3CCC(NC4CCOCC4)CC3)nc12 (centres unmarked) [Example 271] | 228 | 120 | 40 | – | – | – | –
2 | CC(C)c1c(-c2cn(CC#N)c3ncccc23)[nH]c2ccc(C3CCC(NC4CCOCC4)CC3)nc12 (centres unmarked) [Example 274] | 474 | 8.5 | 3.7 | – | – | – | –
3 | CCCN(CCC)C1CCC(Oc2ccc3[nH]c(-c4cc(OC)c5ncnn5c4)c(C(C)C)c3n2)CC1 (centres unmarked) [Example 605, 4-((3-isopropyl-2-(8-methoxy-[1,2,4]triazolo[1,5-a]pyridin-6-yl)-1H-pyrrolo[3,2-b]pyridin-5-yl)oxy)-N,N-dipropylcyclohexan-1-amine] | – | 13 | – | 4240 | – | – | –
4 | COc1cc(-c2[nH]c3ccc(CCC4CN(Cc5c[nH]nn5)C4)nc3c2C(C)C)cn2ncnc12 [Example 688] | 177 | 8.4 | 23 | – | – | – | –
5 | Cc1c(-c2[nH]c3ccc(N4[C@@H]5CC[C@H]4CN(CCC(N)=O)C5)nc3c2C(C)C)cn2ncnc2c1C [Example 749] | 14900 | 2.9 | 2.6 | – | – | – | –
6 | Cc1c(-c2[nH]c3ccc(N4C[C@H]5CCC[C@@H](C4)N5C(=O)CN(C)C)nc3c2C(C)C)cn2ncnc2c1C [Example 750] | 6140 | 1.2 | 3.7 | – | – | – | –
7 | Cc1c(-c2[nH]c3ccc(N4C[C@H]5CCC[C@@H](C4)N5CCS(C)(=O)=O)nc3c2C(C)C)cn2ncnc2c1C [Example 751] | 26000 | 13 | 7.3 | – | – | – | –
8 | Cc1c(-c2[nH]c3ccc(N4C[C@H]5C[C@@H]4CN5CCCS(C)(=O)=O)nc3c2C(C)C)cn2ncnc2c1C [Example 765] | 10300 | 5.6 | 3.5 | – | – | – | –
9 | Cc1c(-c2[nH]c3ccc(N4C[C@H]5C[C@@H]4CN5C4COC4)nc3c2C(C)C)cn2ncnc2c1C [Example 768] | 21000 | 6.4 | 9.6 | – | – | – | –
10 | Cc1c(-c2[nH]c3ccc(N4C[C@H]5C[C@@H]4CN5C4CCS(=O)(=O)CC4)nc3c2C(C)C)cn2ncnc2c1C [Example 770] | 18200 | 11 | 24 | – | – | – | –
11 | Cc1c(-c2[nH]c3ccc(N4C[C@@H]5C[C@H]4CN5CCC(=O)N(C)C)nc3c2C(C)C)cn2ncnc2c1C [Example 776] | 13100 | 6 | 5.3 | – | – | – | –
12 | Cc1c(-c2[nH]c3ccc(N4C[C@@H]5C[C@H]4CN5CCS(C)(=O)=O)nc3c2C(C)C)cn2ncnc2c1C [Example 777] | 14800 | 9.2 | 7.4 | – | – | – | –
13 | Cc1c(-c2[nH]c3ccc(N4C[C@@H]5C[C@H]4CN5C4COC4)nc3c2C(C)C)cn2ncnc2c1C [Example 779] | 34500 | 7.3 | 11 | – | – | – | –
14 | Cc1c(-c2[nH]c3ccc(N4C[C@@H]5C[C@H]4CN5C4CCS(=O)(=O)CC4)nc3c2C(C)C)cn2ncnc2c1C [Example 781] | 14400 | 11 | 18 | – | – | – | –
15 | Cc1c(-c2[nH]c3ccc(N4C[C@@H]5C[C@H]4CN5C(=O)CCN(C)C)nc3c2C(C)C)cn2ncnc2c1C [Example 785] | 4680 | 8 | 13 | – | – | – | –
16 | Cc1c(-c2[nH]c3ccc(N4C[C@H]5C[C@@H]4CN5C(C)C)nc3c2C(C)C)cn2ncnc2c1C [Example 786] | 14700 | 7.7 | 12 | – | – | – | –
17 | Cc1c(-c2[nH]c3ccc(N4C[C@@H]5C[C@H]4CN5Cc4cn(C)nn4)nc3c2C(C)C)cn2ncnc2c1C [Example 787] | 12300 | 9.4 | 4.9 | – | – | – | –
18 | Cc1c(-c2[nH]c3ccc(N4C[C@@H](C)N(CCCS(C)(=O)=O)C[C@@H]4C)nc3c2C(C)C)cn2ncnc2c1C [Example 846] | – | – | – | – | 22600 | 0.55 | 1.2
19 | Cc1c(-c2[nH]c3ccc(N4CCN(C(=O)CN(C)C)[C@H](C)C4)nc3c2C(C)C)cn2ncnc2c1C [Example 849] | – | – | – | – | 8120 | 0.53 | 1.6
20 | Cc1c(-c2[nH]c3ccc(C4CC5(C4)CN(C)C5)nc3c2C(C)C)cn2ncnc2c1C [Example 1022] | – | – | – | – | 3650 | 0.91 | 1.9
21 | Cc1c(-c2[nH]c3ccc(C4CC5(C4)CN(C(C)C)C5)nc3c2C(C)C)cn2ncnc2c1C [Example 1023] | – | – | – | – | 6940 | 10 | 3.6

The remaining compounds from weak to strong by IC50 [2, 5], led by results:

Row | IC50 [1, 4] [nM] | IC50 [2, 5] [nM] | IC50 [3, 6] [nM] | IC50 [1] [nM] | IC50 [1, 7] [nM] | IC50 ([2]; HEK-Blue cells) [nM] | IC50 ([3]; HEK-Blue cells) [nM] | SMILES
22 | 8300 | 5.4 | 2.9 | – | – | – | – | Cc1c(-c2[nH]c3ccc(N4C[C@H]5C[C@@H]4CN5CCC(=O)N(C)C)nc3c2C(C)C)cn2ncnc2c1C [Example 767]
23 | 18300 | 3.8 | 8.6 | – | – | – | – | Cc1c(-c2[nH]c3ccc(N4C[C@H]5C[C@@H]4CN5CC(N)=O)nc3c2C(C)C)cn2ncnc2c1C [Example 762]
24 | 4580 | 3.8 | 2.6 | – | – | – | – | Cc1c(-c2[nH]c3ccc(N4C[C@H]5C[C@@H]4CN5CCC(N)=O)nc3c2C(C)C)cn2ncnc2c1C [Example 763]
25 | 8450 | 3.8 | 4.4 | – | – | – | – | Cc1c(-c2[nH]c3ccc(N4C[C@@H]5C[C@H]4CN5CCC(N)=O)nc3c2C(C)C)cn2ncnc2c1C [Example 775]
26 | 3170 | 3.7 | 10 | – | – | – | – | Cc1c(-c2[nH]c3ccc(N4CCC(N(C)Cc5ncccn5)CC4)nc3c2C(C)C)cn2cnnc2c1C [Example 78]
27 | 18600 | 3.7 | 5.7 | – | – | – | – | Cc1c(-c2[nH]c3ccc(N4C[C@@H]5C[C@H]4CN5CC(N)=O)nc3c2C(C)C)cn2ncnc2c1C [Example 774]
28 | 2710 | 3 | 4.6 | – | – | – | – | Cc1c(-c2[nH]c3ccc(N4C[C@H]5C[C@@H]4CN5C(=O)CCN(C)C)nc3c2C(C)C)cn2ncnc2c1C [Example 773]
29 | 4530 | 2.9 | 9.4 | – | – | – | – | Cc1c(-c2[nH]c3ccc(N4C[C@@H]5C[C@H]4CN5C(=O)CN(C)C)nc3c2C(C)C)cn2ncnc2c1C [Example 784]
30 | 7910 | 2.7 | 2.3 | – | – | – | – | Cc1c(-c2[nH]c3ccc(N4C[C@@H]5C[C@H]4CN5CCCS(C)(=O)=O)nc3c2C(C)C)cn2ncnc2c1C [Example 778]
31 | 14400 | 1.9 | 2.8 | – | – | – | – | Cc1c(-c2[nH]c3ccc(N4C[C@H]5C[C@@H]4CN5CCS(C)(=O)=O)nc3c2C(C)C)cn2ncnc2c1C [Example 764]
32 | 5220 | 1.9 | 5.4 | – | – | – | – | Cc1c(-c2[nH]c3ccc(N4C[C@@H]5C[C@H]4CN5C4CCOCC4)nc3c2C(C)C)cn2ncnc2c1C [Example 780]
33 | 8380 | 1.8 | 3.9 | – | – | – | – | Cc1c(-c2[nH]c3ccc(N4C[C@@H]5C[C@H]4CN5C(C)C)nc3c2C(C)C)cn2ncnc2c1C [Example 783]
34 | 2060 | 0.88 | 0.79 | – | – | – | – | CCN(CCS(C)(=O)=O)C1CCC(c2ccc3[nH]c(-c4cn5ncnc5c(C)c4C)c(C(C)C)c3n2)CC1 (centres unmarked) [Example 460]
35 | 3510 | 0.86 | 1.2 | – | – | – | – | Cc1c(-c2[nH]c3ccc(N4C[C@H]5C[C@@H]4CN5CC#N)nc3c2C(C)C)cn2ncnc2c1C [Example 766]
36 | 4920 | 0.72 | 4.6 | – | – | – | – | Cc1cc(-c2[nH]c3ccc(C4CCN(CC(N)=O)CC4)nc3c2C(C)C)cn2ncnc12 [Example 559]

From patent publication US10730877B2, “4-Azaindole compounds” (BRISTOL-MYERS SQUIBB COMPANY, priority 2017, dated 2020)
